Consider 25 compounds from US20130324532A1 (priority 2011, published 2013).

Test [1] addresses FAK enzyme (catalytic domain, amino acids 411-686) (Homo sapiens, UniProt Q05397). In words: biochemical.
The target of test [2] is N-terminally GST-fused purified FAK enzyme (Homo sapiens, UniProt Q05397). In words: biochemical.
Description: Binding parameters of compounds were determined using a Biacore™ S51 sensor. An anti-GST antibody was immobilized onto a CM5 chip by primary amine-coupling in accordance with the manufacturer's recommendations.
Concentration series' of the test compounds were injected over the spots at 25° C.
After the injection cycle of a compound the chip surface was regenerated with 10 mM glycine-HCl, pH2.2 before capturing the enzyme again.
Test [3] addresses T1, VEGFR3 cytoplasmic domain (Homo sapiens, UniProt P35916, DEL949-1002).
T1 construct: VEGFR3 cytoplasmic domain (amino acids 798-1298) was purchased as N-terminal GST-fusion protein; purchased
In words: biochemical.

The test system of a further test is MDA-231-LNA cells. The experiment in a line: cells. The note with it: 72 h.
Test [4] has as its target VEGFR3 cytoplasmic domain (Homo sapiens, UniProt P35916). In words: biochemical.
The target of test [5] is T2, Phospho VEGFR3 (Flt4) in HMVEC-dLyAD cells (Homo sapiens, UniProt P35916).
T2 construct: host or cells: HMVEC-dLyAD (adult human dermal lymphatic microvascular endothelial cells)
The experiment in a line: Flt4 Phospho ELISA assay. Format: cell-based. (An ELISA detects its analyte on a solid surface through an enzyme-linked reagent.)
Description: The ability of compounds of the invention to inhibit VEGFR3 within cells can be assessed with an ELISA type assay.
The plates were covered and incubated at room temperature overnight.
300 μL of Blocking buffer (5% v/v Tween 20, 5% w/v sucrose in PBS) was then added to wells and plate incubated for 2 hours at room temperature. Blocking solution is flicked out and plates washed three times and tapped dry.
Compound dilution series were prepared in Endogro basal (Cat # SCME-BM, Millipore)+0.1% BSA (Cat#A8412, Sigma) with constant 0.1% DMSO concentration. 439 μL of sample or vehicle control was added to the cell monolayers.
130 μL of Lysis buffer added to wells and cell lysate harvested and transferred to tubes and stored on ice.
The plates were then washed three times in wash buffer as described above and tapped dry. […]
Total VEGFR3 levels were quantified using a Multiskan Ascent plate reader and Ascent software fitted with 450 nm filter. […]
Phospho VEGFR3 levels were quantified using a Multiscan ascent plate reader and ascent software fitted with 450 nm filter.
where SRP is the Sample Relative Phospho level, SP is Phospho VEGFR3 reading and ST is Total VEGFR3 reading.
Percent inhibition (% I) for each lysate relative to vehicle control (VEGF-C stimulated) is then calculated according to the following formula:
where SRP is the Sample Relative Phospho level as calculated above. […]

Test [6] relates to taxane-sensitive (SKOV3ip1 and HeyA8) and taxane-resistant (HeyA8-MDR) ovarian cancer cell lines. The conditions noted are these: in vitro; cited from earlier work.
The test system of test [7] is HeyA8, SKOV3ip1, and HeyA8-MDR models. The note with it: cited from earlier work.

SMILES strings stand for the structures. Read-outs that look alike come from different tables or passages of the source.

What is called IC50 is the midpoint of a concentration-inhibition curve. What is called Kd is the constant that tells how readily two partners part at equilibrium.

Sequence of N-terminally GST-fused purified FAK enzyme (Q05397 whole entry, the tested form may be a part): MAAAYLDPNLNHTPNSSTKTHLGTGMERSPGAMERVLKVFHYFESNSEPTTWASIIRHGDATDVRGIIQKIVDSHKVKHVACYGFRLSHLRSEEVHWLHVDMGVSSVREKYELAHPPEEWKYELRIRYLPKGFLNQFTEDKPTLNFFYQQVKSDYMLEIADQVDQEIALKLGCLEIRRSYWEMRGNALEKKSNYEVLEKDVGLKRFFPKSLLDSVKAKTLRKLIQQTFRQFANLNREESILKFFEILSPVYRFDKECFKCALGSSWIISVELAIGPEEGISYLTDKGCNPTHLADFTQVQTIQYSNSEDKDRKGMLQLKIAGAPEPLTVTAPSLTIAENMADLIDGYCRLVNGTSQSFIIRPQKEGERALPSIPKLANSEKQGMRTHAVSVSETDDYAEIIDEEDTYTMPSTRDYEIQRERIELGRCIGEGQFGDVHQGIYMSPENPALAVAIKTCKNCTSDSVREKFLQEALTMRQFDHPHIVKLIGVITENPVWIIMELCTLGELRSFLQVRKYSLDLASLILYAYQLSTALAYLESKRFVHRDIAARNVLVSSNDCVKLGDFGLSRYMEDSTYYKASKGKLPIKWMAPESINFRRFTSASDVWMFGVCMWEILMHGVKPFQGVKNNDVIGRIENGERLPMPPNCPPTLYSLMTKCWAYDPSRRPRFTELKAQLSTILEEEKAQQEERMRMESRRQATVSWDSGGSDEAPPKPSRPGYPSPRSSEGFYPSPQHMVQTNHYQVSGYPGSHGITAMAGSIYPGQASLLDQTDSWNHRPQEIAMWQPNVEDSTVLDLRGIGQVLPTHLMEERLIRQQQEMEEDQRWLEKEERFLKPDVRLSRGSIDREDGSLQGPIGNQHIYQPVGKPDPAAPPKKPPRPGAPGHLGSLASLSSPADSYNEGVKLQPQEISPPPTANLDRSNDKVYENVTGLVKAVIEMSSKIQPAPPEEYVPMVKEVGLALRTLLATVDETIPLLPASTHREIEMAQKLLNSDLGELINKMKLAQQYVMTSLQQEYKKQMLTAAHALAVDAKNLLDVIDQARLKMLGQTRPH
Sequence of VEGFR3 cytoplasmic domain (Homo sapiens, UniProt P35916) (P35916 other isoform, or with tags, fused parts or gaps): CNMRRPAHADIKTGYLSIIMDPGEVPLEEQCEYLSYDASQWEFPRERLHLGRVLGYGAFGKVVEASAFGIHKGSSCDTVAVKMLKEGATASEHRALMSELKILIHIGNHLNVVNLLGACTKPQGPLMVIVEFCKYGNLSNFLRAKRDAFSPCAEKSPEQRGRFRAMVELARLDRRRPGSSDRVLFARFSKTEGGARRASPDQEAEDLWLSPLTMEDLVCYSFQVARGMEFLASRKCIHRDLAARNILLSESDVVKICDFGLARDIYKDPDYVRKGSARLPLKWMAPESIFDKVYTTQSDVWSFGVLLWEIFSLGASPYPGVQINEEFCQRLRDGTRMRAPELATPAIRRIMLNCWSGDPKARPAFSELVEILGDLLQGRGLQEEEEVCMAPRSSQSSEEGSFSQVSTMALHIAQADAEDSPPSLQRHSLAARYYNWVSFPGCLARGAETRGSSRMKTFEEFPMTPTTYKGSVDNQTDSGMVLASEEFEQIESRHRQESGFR
Sequence of FAK enzyme (catalytic domain, amino acids 411-686) (Q05397 411-686, species assumed): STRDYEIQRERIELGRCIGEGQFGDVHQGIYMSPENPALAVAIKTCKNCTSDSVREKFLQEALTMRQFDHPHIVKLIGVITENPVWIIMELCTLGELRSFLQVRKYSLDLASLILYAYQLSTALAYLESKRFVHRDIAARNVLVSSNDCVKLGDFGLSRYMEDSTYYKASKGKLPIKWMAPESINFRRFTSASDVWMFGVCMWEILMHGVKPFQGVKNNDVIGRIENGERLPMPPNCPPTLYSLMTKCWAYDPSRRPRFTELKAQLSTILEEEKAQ
T1 sequence (P35916 with tags, fused parts or gaps DEL949-1002): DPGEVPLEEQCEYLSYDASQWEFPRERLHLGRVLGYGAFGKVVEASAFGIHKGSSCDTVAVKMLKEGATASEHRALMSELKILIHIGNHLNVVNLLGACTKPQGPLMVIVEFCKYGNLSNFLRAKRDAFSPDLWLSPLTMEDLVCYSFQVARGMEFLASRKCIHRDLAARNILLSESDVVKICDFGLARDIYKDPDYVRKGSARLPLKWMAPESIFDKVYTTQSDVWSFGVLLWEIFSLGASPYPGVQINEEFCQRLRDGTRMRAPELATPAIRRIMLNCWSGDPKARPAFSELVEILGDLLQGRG
T2 sequence (P35916 25-1363): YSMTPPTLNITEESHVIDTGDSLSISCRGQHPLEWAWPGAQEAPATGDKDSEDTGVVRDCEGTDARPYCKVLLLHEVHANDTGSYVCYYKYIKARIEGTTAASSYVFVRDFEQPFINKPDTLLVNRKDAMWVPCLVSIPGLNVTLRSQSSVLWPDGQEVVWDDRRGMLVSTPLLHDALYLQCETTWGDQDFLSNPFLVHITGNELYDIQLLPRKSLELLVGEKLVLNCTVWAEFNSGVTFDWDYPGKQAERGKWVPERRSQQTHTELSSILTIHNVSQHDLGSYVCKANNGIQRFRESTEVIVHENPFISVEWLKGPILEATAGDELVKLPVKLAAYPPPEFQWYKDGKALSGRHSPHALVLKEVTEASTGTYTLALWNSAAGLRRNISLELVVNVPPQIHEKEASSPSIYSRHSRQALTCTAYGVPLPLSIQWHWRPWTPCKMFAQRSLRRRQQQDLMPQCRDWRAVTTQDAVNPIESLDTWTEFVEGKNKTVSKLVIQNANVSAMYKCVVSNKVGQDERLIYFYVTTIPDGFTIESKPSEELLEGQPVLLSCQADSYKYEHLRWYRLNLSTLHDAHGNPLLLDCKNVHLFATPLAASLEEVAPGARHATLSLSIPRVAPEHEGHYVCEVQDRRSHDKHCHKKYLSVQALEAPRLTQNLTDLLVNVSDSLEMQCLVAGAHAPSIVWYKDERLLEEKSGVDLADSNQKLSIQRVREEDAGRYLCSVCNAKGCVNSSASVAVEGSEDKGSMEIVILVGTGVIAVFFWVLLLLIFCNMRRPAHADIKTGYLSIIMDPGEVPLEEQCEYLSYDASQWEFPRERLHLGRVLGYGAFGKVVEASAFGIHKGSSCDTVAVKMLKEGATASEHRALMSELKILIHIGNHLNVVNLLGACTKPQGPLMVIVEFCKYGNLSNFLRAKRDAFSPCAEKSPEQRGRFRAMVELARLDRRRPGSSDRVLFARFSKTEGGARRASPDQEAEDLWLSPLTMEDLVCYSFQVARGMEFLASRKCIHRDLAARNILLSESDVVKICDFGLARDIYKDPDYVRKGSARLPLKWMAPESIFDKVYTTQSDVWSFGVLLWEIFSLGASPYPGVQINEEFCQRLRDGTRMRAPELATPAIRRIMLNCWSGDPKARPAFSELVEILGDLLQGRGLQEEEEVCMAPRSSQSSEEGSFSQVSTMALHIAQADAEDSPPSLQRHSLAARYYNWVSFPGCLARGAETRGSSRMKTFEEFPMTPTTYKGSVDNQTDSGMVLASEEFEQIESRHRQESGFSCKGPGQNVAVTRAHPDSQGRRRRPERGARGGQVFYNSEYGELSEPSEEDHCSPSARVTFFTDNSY

Consider `NC(=O)Cc1ccccc1CCc1nc(Nc2ccc(N3CCNCC3)cc2)ncc1C(F)(F)F` [Compound 1, 2-(2-(2-(2-((4-(piperazin-1-yl)phenyl)amino)-5-(trifluoromethyl)pyrimidin-4-yl)ethyl)phenyl)acetamide], for which, in test [1], the half-maximal inhibitory concentration (IC50) was determined as 2.1 nM. In test [2], this compound yielded a Kd of 0.49 nM.
In the case of `CN1CCN(c2ccc(Nc3ncc(C(F)(F)F)c(CCc4cccc(C(N)=O)c4)n3)cc2)CC1` [Compound 2, 3-(2-(2-((4-(4-Methylpiperazin-1-yl)phenyl)amino)-5-(trifluoromethyl)pyrimidin-4-yl)ethyl)benzamide], the IC50 was found to be 120 nM in test [3] (modified form (*): N-terminal Hexa-His-fusion protein, amino acids 818-1177 lacking 949-1002, read-out: IC50); 2.5 nM in test [1]; 3210 nM with MDA-231-LNA cells. The same compound gave a Kd in test [2] of 1.5 nM.
Take `CN1CCN(c2ccc(Nc3ncc(C(F)(F)F)c(CCc4ccccc4CC(N)=O)n3)cc2)CC1` [Compound 3]: the IC50 in test [1] came to 1.9 nM. Binding in test [2] was characterised by a dissociation constant (Kd) of 0.91 nM.
In the same order, the values of `NC(=O)Cc1ccccc1CCc1nc(Nc2ccc(C3CCCNC3)cc2)ncc1C(F)(F)F` (centres unmarked) [Compound 4, 2-(2-(2-(2-((4-(Piperidin-3-yl)phenyl)amino)-5-(trifluoromethyl)pyrimidin-4-yl)ethyl)phenyl)acetamide] are 1.5 nM and 0.73 nM.
With `CN1CCN(c2cccc(Nc3ncc(C(F)(F)F)c(CCc4cccc(C(N)=O)c4)n3)c2)CC1` [Compound 6, 3-(2-(2-((3-(4-Methylpiperazin-1-yl)phenyl)amino)-5-(trifluoromethyl)pyrimidin-4-yl)ethyl)benzamide], the IC50 was found to be 52 nM in test [4], 4.2 nM in test [1] and 3910 nM in the test with MDA-231-LNA cells. In test [2], this compound came in with a Kd of 6.3 nM.
In test [1], `NC(=O)Cc1ccccc1CCc1nc(Nc2ccc(C3CCCCN3)cc2)ncc1C(F)(F)F` (centres unmarked) [Compound 8, 2-(2-(2-(2-((4-(Piperidin-2-yl)phenyl)amino)-5-(trifluoromethyl)pyrimidin-4-yl)ethyl)phenyl)acetamide] yielded an IC50 of 6.1 nM. In addition, the Kd in test [2] amounted to 1 nM.
In the case of `CN1CCCCC1c1ccc(Nc2ncc(C(F)(F)F)c(CCc3ccccc3CC(N)=O)n2)cc1` (centres unmarked) [Compound 9], the IC50 in test [1] is 7 nM. In test [2], binding was characterised by a dissociation constant (Kd) of 7 nM.
The compound `NC(=O)Cc1ccccc1CCc1nc(Nc2ccc(C3CCNCC3)cc2)ncc1C(F)(F)F` [Compound 11, 2-(2-(2-(2-((4-(Piperidin-4-yl)phenyl)amino)-5-(trifluoromethyl)pyrimidin-4-yl)ethyl)phenyl)acetamide] gave an IC50 in test [1] of 3 nM. The dissociation constant Kd in test [2] was determined as 0.61 nM.
As to `CC(C(N)=O)c1ccccc1CCc1nc(Nc2ccc(C3CCNCC3)cc2)ncc1C(F)(F)F` (centres unmarked) [Compound 12, 2-(2-(2-(2-((4-(Piperidin-4-yl)phenyl)amino)-5-(trifluoromethyl)pyrimidin-4-yl)ethyl)phenyl)propanamide], the IC50 in test [1] is 6.3 nM. Besides, the dissociation constant Kd in test [2] is 0.92 nM.
Consider `CNC(=O)Cc1ccccc1CCc1nc(Nc2ccc(N3CCNCC3)cc2)ncc1C(F)(F)F` [Compound 14, N-Methyl-2-(2-(2-(2-((4-(piperazin-1-yl)phenyl)amino)-5-(trifluoromethyl)pyrimidin-4-yl)ethyl)phenyl)acetamide], for which the IC50 stood at 101 nM in test [4], 21 nM in test [1] and 4490 nM in the test with MDA-231-LNA cells. The compound further showed a Kd in test [2] of 6.1 nM.
On to `O=C1NCc2cccc(CCc3nc(Nc4ccc(N5CCNCC5)cc4)ncc3C(F)(F)F)c21` [Compound 15, 7-(2-(2-((4-(piperazin-1-yl)phenyl)amino)-5-(trifluoromethyl)pyrimidin-4-yl)ethyl)isoindolin-1-one], for which the IC50 in test [4] (read-out: IC50) worked out at 37 nM; in test [1] it was 18 nM; in the test on MDA-231-LNA cells, 2370 nM. The Kd in test [2] was 5 nM.
On to `CN1CCN(c2cccc(Nc3ncc(C(F)(F)F)c(CCc4ccccc4CC(N)=O)n3)c2)CC1` [Compound 17, 2-(2-(2-(2-((3-(4-Methylpiperazin-1-yl)phenyl)amino)-5-(trifluoromethyl)pyrimidin-4-yl)ethyl)phenyl)acetamide], for which the IC50 in test [4] came out at 31 nM; in test [1], 3.4 nM; with MDA-231-LNA cells, 3510 nM; in test [5] it was 44 nM. Binding in test [2] was put at a Kd of 3.5 nM.
Regarding `CNC(=O)Cc1ccccc1CCc1nc(Nc2cccc(N3CCN(C)CC3)c2)ncc1C(F)(F)F` [Compound 18], the results for the IC50 (in test [4]; in test [1]; with MDA-231-LNA cells) were 664 nM, 13 nM and > 5000 nM, respectively. This compound also registered a Kd in test [2] of 13 nM.
Regarding `Cc1ccc(CCc2nc(Nc3ccc(N4CCNCC4)cc3)ncc2C(F)(F)F)cc1C(N)=O` [Compound 19, 2-Methyl-5-(2-(2-((4-(piperazin-1-yl)phenyl)amino)-5-(trifluoromethyl)pyrimidin-4-yl)ethyl)benzamide], the half-maximal inhibitory concentration (IC50) in test [4] was found to be 37 nM; in test [1] it was 7.7 nM; with MDA-231-LNA cells, 1490 nM. In test [2], this compound returned a Kd of 7.8 nM.
`NC(=O)Cc1ccccc1CCc1nc(Nc2ccc(N3CCC(N)CC3)cc2)ncc1C(F)(F)F` [Compound 20, 2-(2-(2-(2-((4-(4-Aminopiperidin-1-yl)phenyl)amino)-5-(trifluoromethyl)pyrimidin-4-yl)ethyl)phenyl)acetamide]: the IC50 in test [1] is 0.81 nM. Also, in test [2], the equilibrium dissociation constant (Kd) is 0.63 nM.
On to `NC(=O)Cc1ccccc1CCc1nc(Nc2ccc3c(c2)CCNC3)ncc1C(F)(F)F` [Compound 21, 2-(2-(2-(2-((1,2,3,4-Tetrahydroisoquinolin-6-yl)amino)-5-(trifluoromethyl)pyrimidin-4-yl)ethyl)phenyl)acetamide], for which the IC50 in test [1] is 2.4 nM. The Kd in test [2] stood at 0.44 nM.
In turn, `NC(=O)Cc1ccccc1CCc1nc(Nc2ccc(C3CNCCO3)cc2)ncc1C(F)(F)F` (centres unmarked) [Compound 22, 2-(2-(2-(2-((4-(morpholin-2-yl)phenyl)amino)-5-(trifluoromethyl)pyrimidin-4-yl)ethyl)phenyl)acetamide] showed a concentration for half-maximal inhibition (IC50) in test [1] of 2.8 nM. Moreover, the Kd in test [2] came to 0.99 nM.
As to `NC(=O)Cc1ccccc1CCc1nc(Nc2ccc(CN3CCNCC3)cc2)ncc1C(F)(F)F` [Compound 25, 2-(2-(2-(2-((4-(piperazin-1-ylmethyl)phenyl)amino)-5-(trifluoromethyl)pyrimidin-4-yl)ethyl)phenyl)acetamide], the IC50 in the test on MDA-231-LNA cells is 2890 nM.
With `NC(=O)Cc1nccnc1CCc1nc(Nc2ccc(C3CCNCC3)cc2)ncc1C(F)(F)F` [Compound 26, 2-(3-(2-(2-((4-(Piperidin-4-yl)phenyl)amino)-5-(trifluoromethyl)pyrimidin-4-yl)ethyl)pyrazin-2-yl)acetamide], 20 nM corresponded to half-maximal inhibition in test [1] (IC50). This compound also had an equilibrium dissociation constant (Kd) in test [2] of 14 nM.
In the same order, the values of `NC(=O)Cc1cncnc1CCc1nc(Nc2ccc(C3CCNCC3)cc2)ncc1C(F)(F)F` [Compound 29, 2-(4-(2-(2-((4-(Piperidin-4-yl)phenyl)amino)-5-(trifluoromethyl)pyrimidin-4-yl)ethyl)pyrimidin-5-yl)acetamide] are 11 nM and 12.1 nM.
Regarding `CCN1CCC(c2ccc(Nc3ncc(C(F)(F)F)c(CCc4ccccc4CC(N)=O)n3)cc2)CC1` [Compound 31, 2-(2-(2-(2-((4-(1-Ethylpiperidin-4-yl)phenyl)amino)-5-(trifluoromethyl)pyrimidin-4-yl)ethyl)phenyl)acetamide], binding in test [2] was characterised by a dissociation constant (Kd) of 1 nM. In other words, the single-digit nanomolar range.
For the compound `CN1CCC(c2ccc(Nc3ncc(C(F)(F)F)c(CCc4cc(C(N)=O)ccn4)n3)cc2)CC1` [Compound 34, 2-(2-(2-((4-(1-Methylpiperidin-4-yl)phenyl)amino)-5-(trifluoromethyl)pyrimidin-4-yl)ethyl)isonicotinamide], the IC50 in test [3] is 184 nM; in test [1] it was 5.7 nM; with MDA-231-LNA cells, 7850 nM. In test [2], this compound yielded a Kd of 5 nM.
With `CN1CCN(Cc2ccc(Nc3ncc(C(F)(F)F)c(CCc4ccccc4CC(N)=O)n3)cc2)CC1` [Compound 36, 2-(2-(2-(2-((4-((4-Methylpiperazin-1-yl)methyl)phenyl)amino)-5-(trifluoromethyl)pyrimidin-4-yl)ethyl)phenyl)acetamide], the IC50 in test [4] was 16 nM; in test [1] it was 2.3 nM; with MDA-231-LNA cells it was 5620 nM; in test [5] it was 169 nM. Binding in test [2] was characterised by a dissociation constant (Kd) of 0.48 nM.
Take `NC(=O)c1cccc(CCc2nc(Nc3ccc(CN4CCNCC4)cc3)ncc2C(F)(F)F)c1` [Compound 37, 3-(2-(2-((4-(piperazin-1-ylmethyl)phenyl)amino)-5-(trifluoromethyl)pyrimidin-4-yl)ethyl)benzamide]: the IC50 in test [4] amounted to 254 nM; in test [1], 15 nM; in the test with MDA-231-LNA cells, 2790 nM.
Consider `CNC(=O)c1ccccc1Nc1nc(Nc2ccc(N3CCOCC3)cc2OC)ncc1Cl` [TAE226], for which, in test [6], the “phosphorylation of FAK at both Y397 and Y861 sites” value is recorded as “inhibited”. In test [7] (TAE226 alone, HeyA8, SKOV3ip1, HeyA8-MDR models), the “reduced tumour burden compared with vehicle-treated controls” value is 46-64%. Also, the tumour burden reduction in test [7] (concomitant administration of TAE226 and docetaxel, all three models) was 85-97%. In addition, in test [7] (in combination with docetaxel), the “survival in tumour-bearing mice” value is “significantly prolonged survival”.
